Results as given in the NIST ThermoML archive (doi:10.1016/j.fluid.2010.10.005).

Assay: xn = mol fraction of the nth substance listed
Conditions: 623.15 K, Liquid, Vibrating tube method

CO [methanol] + O
Conditions	mass density [kg/m3]
20000 kPa, x1 = 0.04	554.98
20000 kPa, x1 = 0.09	499.06
20000 kPa, x1 = 0.15	466.53
20000 kPa, x1 = 0.18	408.88
20000 kPa, x1 = 0.2	310.04
20000 kPa, x1 = 0.25	240.45
20000 kPa, x1 = 0.38	198.52
20000 kPa, x1 = 0.57	192.93
20000 kPa, x1 = 0.59	193.68
20000 kPa, x1 = 0.73	195.58
20000 kPa, x1 = 0.9	203.5
20000 kPa, x1 = 0.95	203.61
25000 kPa, x1 = 0.06	592.54
25000 kPa, x1 = 0.1	564.26
25000 kPa, x1 = 0.19	481.28
25000 kPa, x1 = 0.29	388.57
25000 kPa, x1 = 0.38	335.66
25000 kPa, x1 = 0.55	284.19
25000 kPa, x1 = 0.8	268.34
30000 kPa, x1 = 0.07	599.12
30000 kPa, x1 = 0.09	578.83
30000 kPa, x1 = 0.12	569.12
30000 kPa, x1 = 0.19	536.54
30000 kPa, x1 = 0.47	401.25
30000 kPa, x1 = 0.54	383.13
30000 kPa, x1 = 0.76	350.39
35000 kPa, x1 = 0.09	603.89
35000 kPa, x1 = 0.18	552.55
35000 kPa, x1 = 0.38	476.16
35000 kPa, x1 = 0.48	449.31
35000 kPa, x1 = 0.55	432.87
35000 kPa, x1 = 0.63	422.11
35000 kPa, x1 = 0.77	406.97
35000 kPa, x1 = 0.87	397.04
